pIC50: −log10 of the molar value. Where a name gives a salt, the structure may show the parent alone. Read-outs that look alike come from different tables or passages of the source.
Molecular target: hERG (Homo sapiens, UniProt Q12809)
Experiment: cell-based
Conditions: for IC50: (-LOG10(IC50), µM)

hERG, sequence (Q12809 whole entry): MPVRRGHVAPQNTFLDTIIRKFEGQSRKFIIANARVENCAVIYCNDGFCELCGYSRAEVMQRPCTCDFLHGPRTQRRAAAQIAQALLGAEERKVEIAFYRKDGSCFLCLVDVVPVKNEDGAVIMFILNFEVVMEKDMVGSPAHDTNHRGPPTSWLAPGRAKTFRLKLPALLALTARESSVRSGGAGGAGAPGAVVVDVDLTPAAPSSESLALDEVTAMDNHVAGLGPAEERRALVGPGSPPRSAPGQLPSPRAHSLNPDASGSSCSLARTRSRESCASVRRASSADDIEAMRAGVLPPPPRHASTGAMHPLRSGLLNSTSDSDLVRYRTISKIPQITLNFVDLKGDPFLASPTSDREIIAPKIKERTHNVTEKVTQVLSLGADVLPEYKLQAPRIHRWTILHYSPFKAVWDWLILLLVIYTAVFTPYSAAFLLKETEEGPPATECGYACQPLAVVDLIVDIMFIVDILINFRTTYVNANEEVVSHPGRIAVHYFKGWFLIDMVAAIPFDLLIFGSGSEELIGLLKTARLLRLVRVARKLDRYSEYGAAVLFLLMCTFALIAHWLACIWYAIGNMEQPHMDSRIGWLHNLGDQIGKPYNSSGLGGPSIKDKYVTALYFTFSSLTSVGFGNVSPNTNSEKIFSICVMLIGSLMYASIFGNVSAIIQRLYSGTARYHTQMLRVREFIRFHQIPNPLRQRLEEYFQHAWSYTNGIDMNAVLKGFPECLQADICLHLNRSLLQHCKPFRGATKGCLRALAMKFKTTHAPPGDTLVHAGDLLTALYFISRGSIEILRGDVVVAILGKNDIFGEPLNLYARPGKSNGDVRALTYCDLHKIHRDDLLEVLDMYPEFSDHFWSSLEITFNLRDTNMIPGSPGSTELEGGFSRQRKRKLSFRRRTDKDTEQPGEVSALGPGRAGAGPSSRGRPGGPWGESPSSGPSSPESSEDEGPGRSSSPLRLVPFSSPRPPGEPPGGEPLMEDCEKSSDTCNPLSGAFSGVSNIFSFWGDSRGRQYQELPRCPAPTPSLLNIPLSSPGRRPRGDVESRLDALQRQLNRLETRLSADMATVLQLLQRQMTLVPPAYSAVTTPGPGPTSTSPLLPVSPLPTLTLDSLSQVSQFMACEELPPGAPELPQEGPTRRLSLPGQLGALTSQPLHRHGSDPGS

Structure (SMILES)	IC50	pIC50
C[C@]12CC[C@H]3[C@@H](CCC4=CC(=O)CC[C@@H]43)[C@@H]1CC[C@@H]2OC(=O)CCc1ccco1 [Nandrolone furylpropionate]	12 µM	–
CCc1cc(Cc2cc(CC)cc(C(C)(C)C)c2O)c(O)c(C(C)(C)C)c1 [2,2'-Methylenebis(ethyl-6-tert-butylphenol)]	17.4 µM	–
CCCCOC(=O)CC(CC(=O)OCCCC)(OC(C)=O)C(=O)OCCCC [Acetyl tributyl citrate]	8.99 µM	–
CN(C)c1ccc(C(=C2C=CC(=[N+](C)C)C=C2)c2ccccc2)cc1 [Malachite green oxalate]	3.51 µM	–
ClC1=C(Cl)[C@]2(Cl)[C@H]3[C@H]([C@@H]4C=C[C@H]3C4)[C@@]1(Cl)C2(Cl)Cl [Aldrin]	23.6 µM	–
CC(=O)c1ccc2c(c1)N(CCCN1CCC(CCO)CC1)c1ccccc1S2 [Piperacetazine]	2.39 µM	–
[H]/N=C(\N/C(=N/[H])Nc1ccc(Cl)cc1)NC(C)C [Proguanil hydrochloride]	20.1 µM	–
CCC(COC(=O)CCS)(COC(=O)CCS)COC(=O)CCS [2,2-Bis{[(3-sulfanylpropanoyl)oxy]methyl}butyl 3-sulfanylpropanoate]	38.9 µM	–
Clc1ccc(Cn2c(CN3CCCC3)nc3ccccc32)cc1 [Clemizole hydrochloride]	1.34 µM	–
Cc1ccc(CCn2c3c(c4cc(Cl)ccc42)CN(C)CC3)cn1 [Dorastine]	15.7 µM	–
Cc1cc(C)c(C(=O)P(=O)(c2ccccc2)c2ccccc2)c(C)c1 [Diphenyl(2,4,6-trimethylbenzoyl)phosphine oxide]	20.3 µM	–
CCOP(=S)(Oc1ccc([N+](=O)[O-])cc1)c1ccccc1 (stereo not drawn) [EPN]	0.776 µM	–
O=C1NCN(c2ccccc2)C12CCN(CC1COc3ccccc3O1)CC2 (stereo not drawn) [Spiroxatrine]	6.24 µM	–
ClC1=C(Cl)[C@]2(Cl)[C@@H]3[C@@H]4C[C@@H]([C@H]5O[C@@H]45)[C@@H]3[C@@]1(Cl)C2(Cl)Cl [Dieldrin]	33.1 µM	–
CCCCCCCC[N+](C)(CCCCCCCC)CCCCCCCC [Methyltrioctylammonium chloride]	0.616 µM	–
CC(=O)OC1(c2ccccc2)CCN(CCc2ccccc2)CC1 [1-(2-Phenylethyl)-4-phenyl-4-acetoxypiperidine]	22.4 µM	–
CN1CCCN(C(c2ccccc2)c2ccc(Cl)cc2)CC1 (stereo not drawn) [Homochlorcyclizine]	1.83 µM	–
COc1cc(C(=O)OCCCN2CCCN(CCCOC(=O)c3cc(OC)c(OC)c(OC)c3)CC2)cc(OC)c1OC [Dilazep]	6.01 µM	–
COC(=O)[C@H]1[C@H]2C[C@@H]3c4[nH]c5cc(OC)ccc5c4CCN3C[C@H]2C[C@@H](OC(=O)/C=C/c2ccc(O)c(OC)c2)[C@@H]1OC [Rescimetol]	1.57 µM	–
CCOP(=S)(OCC)Oc1ccc([N+](=O)[O-])cc1 [parathion]	45.9 µM	–
CCN(CC)CCNC(C(=O)OCCC(C)C)c1ccccc1 (stereo not drawn) [Camylofin]	6.74 µM	–

Structure (SMILES)	IC50	pIC50
O=C1Cc2ccccc2N1c1c(Cl)cccc1Cl [1-(2,6-Dichlorophenyl)-2-indolinone]	21.9 µM	–
Cc1cc(Cc2cc(C)cc(C(C)(C)C)c2O)c(O)c(C(C)(C)C)c1 [2,2'-Methylenebis(4-methyl-6-tert-butylphenol)]	31.1 µM	–
CCCCCCCCCCCCCC[N+](C)(C)C [Tetradonium bromide]	18.3 µM	–
C=CC(C)(O)CCC=C(C)CCC=C(C)C (stereo not drawn) [Nerolidol]	47.1 µM	–
C=CCOc1cc(Cl)ccc1C(=O)NCCN(CC)CC [Alloclamide]	8.82 µM	–
C[C@H]1C[C@H]2[C@@H]3CCC4=CC(=O)C=C[C@]4(C)[C@@]3(Cl)[C@@H](O)C[C@]2(C)[C@@]1(O)C(=O)CO [Beclomethasone]	23.9 µM	–
CCCCCCCCN(C)CCCCCCCC [N-Methyldioctylamine]	3.25 µM	–
COc1ccnc(C[S+]([O-])c2nc3ccc(OC(F)F)cc3[nH]2)c1OC (stereo not drawn) [Pantoprazole sodium]	49.3 µM	–
c1ccc(Sc2ccccc2)cc1 [Diphenyl sulfide]	43.6 µM	–
CCCCCCOC(=O)NC(=N)c1ccc(NCc2nc3cc(C(=O)N(CCC(=O)OCC)c4ccccn4)ccc3n2C)cc1 [Dabigatran etexilate]	0.515 µM	–
O=c1[nH]c2ccccc2n1CCCN1CCN(C(c2ccccc2)c2ccccc2)CC1 [Oxatomide]	0.442 µM	–
CCn1nc(Cc2ccccc2)cc1C1CCN(C[C@H]2C[C@H](N(C)[C@@H](C(=O)O)C(C)C)C[C@@H]2c2cccc(F)c2)CC1 [MK-578]	20.3 µM	–
CC(=O)C1(C)CC2=C(CCCC2(C)C)CC1C (stereo not drawn) [Isocyclemone E]	40 µM	–
CCOC(=O)NCCOc1ccc(Oc2ccccc2)cc1 [Fenoxycarb]	45.3 µM	–
CCC(C)Nc1ccc(NC(C)CC)cc1 (stereo not drawn) [N,N'-Bis(1-methylpropyl)-1,4-benzenediamine]	12.5 µM	–
CC1(CN2CCC(n3c(=O)[nH]c4ccccc43)CC2)OCc2ccccc2-n2cccc21 (stereo not drawn) [Zaldaride]	8.82 µM	–
Cc1nnc2n1-c1sc(CCc3ccc(CC(C)C)cc3)cc1C(c1ccccc1Cl)=NC2C (stereo not drawn) [Israpafant]	19 µM	–
CSCCCN=C=S [3-(Methylthio)propyl isothiocyanate]	36.7 µM	–
CCCN(CCOc1c(Cl)cc(Cl)cc1Cl)C(=O)n1ccnc1 [Prochloraz]	20.3 µM	–
O=C(CCCCCCCCc1cccnc1)N1CCC(C=C(c2ccccc2)c2ccccc2)CC1 [Ro 23-7637]	11 µM	–
ClC(Cl)=C(c1ccc(Cl)cc1)c1ccccc1Cl [o,p'-DDE]	21 µM	–

Structure (SMILES)	IC50	pIC50
CCN(CC)CCNC(=O)COc1ccc(Cl)cc1 [Clofexamide]	16.3 µM	–
CCCCCCCCn1sc(Cl)c(Cl)c1=O [4,5-Dichloro-2-octyl-3(2H)-isothiazolone]	16.1 µM	–
CC1CCC(C(C)C)C(OC(=O)c2ccccc2N)C1 (stereo not drawn) [Menthyl anthranilate]	30.5 µM	–
Oc1ccc(C(c2ccc(O)cc2)C(Cl)(Cl)Cl)cc1 [2,2-Bis(4-hydroxyphenyl)-1,1,1-trichloroethane]	54.9 µM	–
O[C@@H](COc1cccc2ncccc12)CN1CCN([C@@H]2c3ccccc3[C@@H]3[C@H](c4ccccc42)C3(F)F)CC1 [LY335979 trihydrochloride]	–	4.92
CC[C@]12CCCN3CCc4c(n(c5ccccc45)C(=O)C1)[C@@H]32 [(-)-Eburnamonine]	1.9 µM	–
COc1c(C(C)(C)C)cc([N+](=O)[O-])c(C)c1[N+](=O)[O-] [Musk ambrette]	20.5 µM	–
CCCCCNC(=N)N/N=C/c1c[nH]c2ccc(OC)cc12 [Tegaserod]	9.16 µM	–
COc1ccc(CCN(C)CCCN2CCc3cc(OC)c(OC)cc3CC2=O)cc1OC [Zatebradine hydrochloride]	10.1 µM	–
Clc1cnc(Oc2ccc(Oc3ncc(Cl)cc3Cl)cc2)c(Cl)c1 [1,4-Bis[2-(3,5-dichloropyridyloxy)]benzene]	17.4 µM	–
CC(=O)OCCN(CCOC(C)=O)c1ccc(/N=N/c2ccc([N+](=O)[O-])cc2C#N)cc1 [Disperse Red 82]	24.5 µM	–
OC(C#CCN1CCCC1)(c1ccccc1)c1ccccc1 [Butinoline]	19 µM	–
CCCCCCCCCCCC(=O)NCCCN(C)C [N-[3-(Dimethylamino)propyl]dodecanamide]	14.3 µM	–
O=C(NC1CCN(CCc2c[nH]c3ccccc23)CC1)c1ccccc1 [Indoramin hydrochloride]	4.42 µM	–
CCOc1ccccc1OCCN[C@H](C)Cc1ccc(OC)c(S(N)(=O)=O)c1 [Tamsulosin hydrochloride]	19.7 µM	–
CCCC[n+]1ccc(C)cc1 [1-Butyl-4-methylpyridinium chloride]	43.4 µM	–
COc1ccccc1N1CCN(CCCCNC(=O)c2ccc(-c3ccc(C(C)=O)cc3)cc2)CC1 [GR 103691]	3.01 µM	–
CC(C)OC(=O)c1cc(C(=O)OC(C)C)cc([N+](=O)[O-])c1 [Nitrothal-isopropyl]	40.6 µM	–
CCCCC(CC)COC(=O)c1ccc(O)cc1 (stereo not drawn) [2-Ethylhexyl p-hydroxybenzoate]	24.5 µM	–
O=S(=O)(C(Cl)(Cl)Cl)C(Cl)(Cl)Cl [Bis(trichloromethyl)sulfone]	18.8 µM	–
CCN(CC)CCOC(=O)C(c1ccccc1)C1CCCCC1 (stereo not drawn) [Drofenine hydrochloride]	7.86 µM	–

Structure (SMILES)	IC50	pIC50
O=C(N[C@H]1N=C(c2ccccc2F)c2cccc3c2N(CC3)C1=O)c1cc2ccccc2[nH]1 [Pranazepide]	7.86 µM	–
CCOC(=O)C1(c2ccccc2)CCN(CCc2ccc(N)cc2)CC1 [Anileridine]	18.3 µM	–
CCN(CC)CCCN(c1ccccc1)C1Cc2ccccc2C1 [Aprindine hydrochloride]	2.79 µM	–
O[C@@H](CNC[C@H](O)[C@H]1CCc2cc(F)ccc2O1)[C@@H]1CCc2cc(F)ccc2O1 (racemic) [rac Nebivolol hydrochloride]	2.49 µM	–
Cc1cc(-c2ccc(N=Nc3cc(S(=O)(=O)O)c4ccccc4c3N)c(C)c2)ccc1N=Nc1cc(S(=O)(=O)O)c2ccccc2c1N [C.I. Direct Red 2]	21.2 µM	–
CCCCN(CCCC)CCCOC(=O)c1ccc(N)cc1 [Butacaine]	14.5 µM	–
O=C(NC(=O)c1c(F)cccc1F)Nc1ccc(Oc2ccc(C(F)(F)F)cc2Cl)cc1F [Flufenoxuron]	37.4 µM	–
CC(C)(C)C(O)/C(=C\c1ccc(Cl)cc1Cl)n1cncn1 (stereo not drawn) [Diniconazole]	61.6 µM	–
CCN(CC)c1ccc(N)cc1 [N,N-Diethyl-p-phenylenediamine]	35.6 µM	–
CN1CCC(=C2c3ccccc3CCc3sccc32)CC1 [Pizotyline]	10.3 µM	–
CCOc1ccc2nc(N)sc2c1 [2-Amino-6-ethoxybenzothiazole]	43.3 µM	–
N#Cc1ccc(CC(=O)c2cccc(C(F)(F)F)c2)cc1 [4-{2-Oxo-2-[3-(trifluoromethyl)phenyl]ethyl}benzonitrile]	30.9 µM	–
N#CSCSC#N [Methylene bis(thiocyanate)]	50.1 µM	–
O=S(=O)(Oc1ccc(Cl)cc1Cl)c1ccccc1 [2,4-Dichlorophenyl benzenesulfonate]	51.8 µM	–
CCN(CC)CCOc1ccccc1C(=O)CCc1ccccc1 [Etafenone]	3.25 µM	–
Cc1ccc(O)c(C(=O)c2ccccc2)c1 [2-Hydroxy-5-methylbenzophenone]	35 µM	–
CCN(CC)CCN1C(=O)CN=C(c2ccccc2F)c2cc(Cl)ccc21 [Flurazepam]	3.79 µM	–
O=C1OC(CCN2CCCCC2)OC1(c1ccccc1)c1ccccc1 (stereo not drawn) [Pipoxolan hydrochloride]	1.25 µM	–

Source: PMC8869358, “High-Throughput Chemical Screening and Structure-Based Models to Predict hERG Inhibition” (Biology, 2022)
